Reference: the supplement of paper PMC10307832

What was measured:
Assay in all cases: relative viability (nuclei count vs DMSO), 5 days (fraction); higher = more cells survive
[1] = compound: COC1=CC=C(C=C1)CN2C=CC3=C2C=C(C=C3)C(=O)NO + NC(=O)Nc1cc(-c2cccc(F)c2)sc1C(=O)N[C@H]1CCCNC1 [AZD7762] (partner 0.2 µM)
In short: (§1)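 Five library-drug doses in √10 steps were combined with a fixed anchor-drug dose, or a single drug was given alone, by pin tool to lung cancer cell lines in 1536-well plates the day after seeding. Nuclei were stained and counted after 5 days. Relative viability is the nuclei count in treated wells over that in vehicle wells, taken as the median of duplicate plates.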

[2] = compound: COC1=CC=C(C=C1)CN2C=CC3=C2C=C(C=C3)C(=O)NO + CC(=O)c1c(C)c2cnc(Nc3ccc(N4CCNCC4)cn3)nc2n(C2CCCC2)c1=O [Palbociclib] (partner 0.5 µM)
In short: as §1

[3] = compound: COC1=CC=C(C=C1)CN2C=CC3=C2C=C(C=C3)C(=O)NO + CCNC(=O)c1noc(-c2cc(C(C)C)c(O)cc2O)c1-c1ccc(CN2CCOCC2)cc1 [Luminespib] (partner 0.01 µM)
In short: as §1

[4] = compound: C[C@]1(c2nc3c(C(N)=O)cccc3[nH]2)CCCN1 [Veliparib] + CC(=O)c1c(C)c2cnc(Nc3ccc(N4CCNCC4)cn3)nc2n(C2CCCC2)c1=O [Palbociclib] (partner 0.5 µM)
In short: as §1

Cell Line | relative viability ([1]; first compound 0.08 µM) | relative viability ([1]; first compound 0.253 µM) | relative viability ([1]; first compound 0.8 µM) | relative viability ([1]; first compound 2.53 µM) | relative viability ([1]; first compound 8 µM) | relative viability ([2]; first compound 0.08 µM) | relative viability ([2]; first compound 0.253 µM) | relative viability ([2]; first compound 0.8 µM) | relative viability ([2]; first compound 2.53 µM) | relative viability ([2]; first compound 8 µM) | relative viability ([3]; first compound 0.08 µM) | relative viability ([3]; first compound 0.253 µM) | relative viability ([3]; first compound 0.8 µM) | relative viability ([3]; first compound 2.53 µM) | relative viability ([3]; first compound 8 µM) | relative viability ([4]; first compound 0.02 µM) | relative viability ([4]; first compound 0.06325 µM) | relative viability ([4]; first compound 0.2 µM) | relative viability ([4]; first compound 0.6325 µM) | relative viability ([4]; first compound 2 µM)
LC-2-ad | 0.905 | 0.874 | 0.865 | 0.898 | 0.835 | 0.446 | 0.532 | 0.506 | 0.484 | 0.47 | 0.993 | 0.82 | 0.992 | 1.06 | 0.791 | 0.485 | 0.496 | 0.508 | 0.477 | 0.505
LOU-NH91 | – | 0.749 | 0.756 | 0.748 | 0.705 | – | 0.537 | 0.548 | 0.574 | 0.529 | 0.316 | 0.345 | 0.322 | 0.341 | 0.359 | 0.538 | 0.546 | 0.552 | 0.574 | 0.538
NCI-H1623 | – | – | – | – | – | – | – | – | – | – | 0.578 | 0.761 | 0.576 | 0.471 | 0.392 | – | – | – | – | –
NCI-H727 | 0.653 | 0.538 | 0.57 | 0.503 | 0.654 | 0.61 | 0.631 | 0.698 | 0.644 | 0.601 | 0.345 | 0.406 | 0.311 | 0.436 | 0.323 | 0.7 | 0.689 | 0.624 | 0.661 | 0.605
NCI-H520 | – | – | – | – | – | 0.197 | 0.194 | 0.208 | 0.214 | 0.195 | – | 0.207 | 0.193 | 0.227 | 0.226 | 0.24 | 0.239 | 0.254 | 0.212 | 0.223
NCI-H1563 | – | – | – | – | – | – | – | – | – | – | 0.507 | 0.506 | 0.517 | 0.551 | 0.488 | – | – | – | – | –
NCI-H2023 | – | – | – | – | – | 0.36 | 0.355 | 0.433 | 0.359 | 0.365 | 0.67 | 0.885 | 0.724 | 0.586 | 0.553 | – | 0.329 | 0.391 | 0.346 | 0.398
COR-L23 | – | – | – | – | – | 0.23 | 0.323 | 0.316 | 0.29 | 0.26 | 0.536 | 0.754 | 0.716 | 0.747 | 0.603 | 0.27 | 0.237 | 0.252 | 0.25 | 0.27
NCI-H2009 | – | – | – | – | – | 0.211 | 0.215 | 0.243 | 0.226 | 0.162 | 1.04 | 1.04 | 1 | 1.02 | 0.933 | 0.145 | 0.211 | 0.235 | 0.205 | 0.2
NCI-H661 | – | – | – | – | – | – | 0.406 | 0.403 | 0.422 | 0.353 | – | 0.873 | 0.883 | 0.88 | 0.765 | 0.382 | 0.41 | 0.4 | 0.371 | 0.384
SK-MES-1 | – | – | – | – | – | 0.357 | 0.324 | 0.299 | 0.287 | 0.31 | 0.795 | 0.833 | 0.609 | 0.795 | 0.504 | 0.334 | 0.278 | 0.329 | 0.307 | 0.297
NCI-H1648 | 0.523 | 0.584 | 0.723 | 0.447 | 0.525 | 0.254 | 0.309 | 0.298 | 0.277 | 0.269 | – | – | – | – | – | 0.257 | – | – | 0.232 | 0.274
NCI-H2228 | – | – | – | – | – | 0.544 | 0.825 | 0.904 | 0.685 | 0.573 | – | 0.193 | 0.179 | 0.142 | 0.13 | 0.553 | 0.897 | 0.645 | 0.774 | 0.759
COR-L 105 | – | – | – | – | – | 0.33 | 0.435 | 0.449 | 0.416 | 0.397 | 0.858 | 0.871 | 0.893 | 0.713 | 0.485 | 0.402 | 0.47 | 0.4 | 0.375 | 0.444
NCI-H1703 | 0.176 | 0.167 | 0.146 | 0.123 | 0.121 | – | – | – | – | – | – | – | – | – | – | – | – | – | – | –
SK-LU-1 | – | – | – | – | – | 0.385 | 0.374 | 0.422 | 0.434 | 0.341 | 0.184 | 0.197 | 0.183 | 0.191 | 0.185 | 0.426 | 0.379 | 0.394 | 0.362 | 0.378
UMC-11 | – | – | – | – | – | – | 0.361 | 0.29 | 0.331 | 0.343 | – | 1.13 | 0.98 | 0.904 | 1.01 | 0.314 | 0.303 | 0.318 | 0.331 | 0.368
NCI-H1650 | – | – | – | – | – | 0.355 | 0.341 | 0.354 | 0.426 | 0.351 | 0.194 | 0.189 | 0.194 | 0.213 | 0.203 | 0.236 | 0.305 | 0.28 | 0.322 | 0.345
HCC-366 | 0.239 | 0.265 | 0.302 | 0.235 | 0.203 | 0.339 | 0.372 | 0.38 | 0.367 | 0.389 | – | – | – | – | – | 0.352 | 0.371 | 0.369 | 0.371 | 0.341
HCC-78 | 0.575 | 1.21 | 0.589 | 0.512 | 0.496 | 0.437 | 0.473 | 0.45 | 0.496 | 0.452 | – | – | – | – | – | 0.459 | 0.458 | 0.454 | 0.456 | 0.442
NCI-H596 | 1.12 | 1.18 | 1.07 | 1.19 | 0.937 | – | – | – | – | – | 0.934 | 0.955 | 0.972 | 1.01 | 0.863 | – | – | – | – | –
